The values below come from ChEMBL document CHEMBL1201862, “PubChem BioAssay data set” (2004).

Test systems include CAKI-1; UACC-257; Malme-3M; K562; OVCAR-5; A498; U-251; ACHN; TK-10; HOP-62; SK-MEL-5; Hs-578T; NCI-H226; NCI-H460; KM12; A549; RXF 393; SK-MEL-2; SK-OV-3.
Common to all, as to assay: NCI-60 cell line screen, 48 h

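Each compound was tested at five concentrations against cells in 96-well plates for 48 hours. At the GI50, growth is halved.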 Activity calls are given as the source filed them. No stated cut-off is given here; in the data, active = GI50 up to about 1.1 µM and inactive = higher.

On to `CCCc1c(O)nc2ccccc2c1O`, for which the GI50 in the experiment with CAKI-1, in the experiment on UACC-257, in the experiment on Malme-3M, with K562, in the experiment with OVCAR-5 and in the experiment with A498 was > 100 µM (inactive) in each case. In addition, the GI50 with U-251, in the experiment with ACHN, with TK-10, in the experiment on HOP-62, in the experiment on SK-MEL-5 and in the experiment with Hs-578T was > 100 µM (inactive) each time. Moreover, the GI50 in the experiment with NCI-H226, in the experiment with NCI-H460, with KM12 and with A549 was > 100 µM (inactive) throughout.

`O=c1c(Cc2c(O)ccc3ccccc23)nnc2sc(-c3nn4c(=O)c(Cc5c(O)ccc6ccccc56)nnc4s3)nn12`: the GI50 with CAKI-1 was > 100 µM (inactive); in the experiment on RXF 393, 22.9 µM (inactive); in the experiment with UACC-257, > 100 µM (inactive); in the experiment on Malme-3M, > 100 µM (inactive); in the experiment on K562 it was > 100 µM (inactive); in the experiment on OVCAR-5, > 100 µM (inactive). Also, the GI50 in the experiment with A498 is 42.2 µM (inactive); in the experiment with SK-MEL-2, 13.4 µM (inactive); in the experiment on U-251, 26.2 µM (inactive); in the experiment on ACHN, 57.4 µM (inactive); in the experiment on TK-10, 37.3 µM (inactive); in the experiment with HOP-62, 28.5 µM (inactive). For the same molecule, the figures for the GI50 in the experiment on Hs-578T and in the experiment with A549 were 10.8 µM (inactive) and > 100 µM (inactive), respectively.

Turning to `CCOC(=O)C1(C(=O)OCC)CC(=O)[C@@]2(C1)OCC[C@H]1OC(=O)C[C@H]12`, the GI50 with CAKI-1, in the experiment with UACC-257, in the experiment on Malme-3M, in the experiment on OVCAR-5, in the experiment on A498 and in the experiment on SK-MEL-2 was > 100 µM (inactive) each time. Further, the GI50 in the experiment with U-251, in the experiment on ACHN, with TK-10, with HOP-62, in the experiment with SK-MEL-5 and in the experiment on Hs-578T was > 100 µM (inactive) throughout. Further, the GI50 in the experiment with NCI-H460, in the experiment with KM12 and in the experiment with A549 was > 100 µM (inactive) throughout.

Take `O=C1/C(=C/c2cccs2)NC(=S)N1CN1CCOCC1`: the GI50 with UACC-257 was 29 µM (inactive); in the experiment with K562, > 100 µM (inactive); with OVCAR-5 it was > 100 µM (inactive); with A498 it was 42.9 µM (inactive); in the experiment on SK-MEL-2, > 100 µM (inactive); in the experiment with U-251, > 100 µM (inactive). Also, the GI50 in the experiment on ACHN was > 100 µM (inactive); in the experiment on TK-10, 34.1 µM (inactive); in the experiment with SK-OV-3, > 100 µM (inactive); in the experiment with HOP-62, > 100 µM (inactive); in the experiment with SK-MEL-5, > 100 µM (inactive); in the experiment with Hs-578T it was > 100 µM (inactive). Moreover, the GI50 with NCI-H226, in the experiment with KM12 and with A549 was > 100 µM (inactive) throughout.

Take `CSc1ccc(/C=C2\N=C(c3ccccc3)N(c3nc4c(Cl)cc(Cl)cc4s3)C2=O)cc1`: the GI50 was 31 µM (inactive) with CAKI-1; 41 µM (inactive) in the experiment on RXF 393; 25.2 µM (inactive) with UACC-257; 26.7 µM (inactive) with K562; 31.1 µM (inactive) in the experiment with OVCAR-5; 17 µM (inactive) with A498. Further, the GI50 in the experiment with SK-MEL-2 is 20.2 µM (inactive); in the experiment with U-251, 17.1 µM (inactive); with ACHN, 27 µM (inactive); in the experiment on TK-10, 39.2 µM (inactive); in the experiment on SK-OV-3, 25.9 µM (inactive); with HOP-62, 18.1 µM (inactive). The GI50 is 16.2 µM (inactive) in the experiment with SK-MEL-5; 21.9 µM (inactive) in the experiment on Hs-578T; 25.6 µM (inactive) in the experiment on NCI-H460; 23 µM (inactive) in the experiment on KM12; 21.4 µM (inactive) in the experiment on A549.

For the molecule `OC[C@@H](O)[C@H](O)[C@@H](O)/C=N/Nc1ccc(Cl)nn1`, the GI50 in the experiment with CAKI-1, with RXF 393, in the experiment on UACC-257, in the experiment with Malme-3M, in the experiment on OVCAR-5 and in the experiment with A498 was > 100 µM (inactive) in each case. The GI50 in the experiment with SK-MEL-2, in the experiment with U-251, in the experiment with ACHN, with TK-10, with SK-OV-3 and with HOP-62 was > 100 µM (inactive) throughout. Moreover, the GI50 in the experiment with SK-MEL-5, with Hs-578T, with NCI-H460, with KM12 and in the experiment with A549 was > 100 µM (inactive) each time.

With `O=C1/C(=C/c2ccccc2S)N=C(c2ccccc2)N1c1ccc2c(c1)Sc1cc(N3C(=O)/C(=C/c4ccccc4S)N=C3c3ccccc3)ccc1N2`, the GI50 is 18.7 µM (inactive) with CAKI-1; 20.4 µM (inactive) with UACC-257; 22 µM (inactive) in the experiment on K562; 18.7 µM (inactive) in the experiment on OVCAR-5; 19.1 µM (inactive) in the experiment with A498; 23.8 µM (inactive) in the experiment on SK-MEL-2. For the same molecule, the GI50 was 19.7 µM (inactive) in the experiment on U-251; 18.6 µM (inactive) in the experiment with ACHN; 17.4 µM (inactive) in the experiment on TK-10; 17.8 µM (inactive) in the experiment with SK-OV-3; 25.6 µM (inactive) in the experiment with HOP-62; 17 µM (inactive) in the experiment with SK-MEL-5. Moreover, the GI50 in the experiment with Hs-578T was 25.6 µM (inactive); in the experiment on NCI-H460 it was 23.7 µM (inactive); with KM12, 34 µM (inactive); with A549 it was 17.4 µM (inactive).

Regarding `C=C(C)C1Cc2c(cc(OC)c3c(=O)c4cccc(O)c4oc23)O1` (centres undefined), the GI50 in the experiment with CAKI-1 is 16.6 µM (inactive); in the experiment with RXF 393 it was 19.4 µM (inactive); with UACC-257, 33 µM (inactive); in the experiment with Malme-3M, 25.2 µM (inactive); with K562, > 100 µM (inactive); in the experiment on OVCAR-5, 72.9 µM (inactive). Besides, the GI50 is 18.6 µM (inactive) in the experiment on SK-MEL-2; 16.8 µM (inactive) in the experiment on U-251; 18.2 µM (inactive) with ACHN; 19.9 µM (inactive) in the experiment on TK-10; 19.5 µM (inactive) in the experiment on SK-OV-3; 18.6 µM (inactive) in the experiment with HOP-62. Also, the GI50 was 16.5 µM (inactive) in the experiment with SK-MEL-5; 25.6 µM (inactive) with Hs-578T; 21.2 µM (inactive) in the experiment on NCI-H226; 28.6 µM (inactive) in the experiment with NCI-H460; 46.5 µM (inactive) with KM12; 31.8 µM (inactive) in the experiment on A549.

For the molecule `CCC(CN(C)C)C(=O)c1ccco1` (centres undefined), the GI50 was > 100 µM (inactive) in the experiment with CAKI-1; > 100 µM (inactive) in the experiment with RXF 393; > 100 µM (inactive) in the experiment with UACC-257; 41.4 µM (inactive) in the experiment on Malme-3M; > 100 µM (inactive) in the experiment on K562; > 100 µM (inactive) with OVCAR-5. Also, the GI50 with A498, with SK-MEL-2, in the experiment with U-251, in the experiment with ACHN, in the experiment on TK-10 and in the experiment with SK-OV-3 was > 100 µM (inactive) each time. Moreover, the GI50 in the experiment with HOP-62 was > 100 µM (inactive); in the experiment with Hs-578T, 98.6 µM (inactive); in the experiment with NCI-H460 it was > 100 µM (inactive); in the experiment with KM12, > 100 µM (inactive); in the experiment with A549, > 100 µM (inactive).

Consider `COC(=O)c1c2c(c3[nH]c4ccccc4c3c1C(=O)OC)C(=O)C1=C(C2=O)C2(Cl)C(Cl)C(Cl)C1(Cl)C2(Cl)Cl` (centres undefined), for which the GI50 in the experiment with CAKI-1 was 3.18 µM (inactive); with RXF 393 it was 1.71 µM (inactive); in the experiment on Malme-3M, 1.82 µM (inactive); with K562, 2.01 µM (inactive); with OVCAR-5, 4.69 µM (inactive); with A498 it was 0.432 µM (active). In addition, the GI50 in the experiment with U-251 was 2.42 µM (inactive); in the experiment on ACHN, 1.92 µM (inactive); in the experiment with TK-10, 3.56 µM (inactive); in the experiment on SK-OV-3, 4.36 µM (inactive); in the experiment with HOP-62, 3.76 µM (inactive); in the experiment with SK-MEL-5, 1.31 µM (inactive). The GI50 in the experiment with Hs-578T was 3.13 µM (inactive); with NCI-H460, 3.2 µM (inactive); with KM12 it was 2.54 µM (inactive); in the experiment on A549, 3.21 µM (inactive).

`CCOC(=O)c1ccc(-n2nnc(C(N)=O)c2O)cc1`: the GI50 in the experiment on CAKI-1, in the experiment on RXF 393, in the experiment with UACC-257, in the experiment with Malme-3M, with K562 and with OVCAR-5 was > 100 µM (inactive) throughout. Also, the GI50 in the experiment on SK-MEL-2, with U-251, with ACHN, in the experiment on TK-10, with SK-OV-3 and in the experiment with HOP-62 was > 100 µM (inactive) each time. Besides, the GI50 in the experiment with SK-MEL-5, with Hs-578T, in the experiment on NCI-H226, in the experiment on NCI-H460, with KM12 and in the experiment with A549 was > 100 µM (inactive) each time.
